# Data taken from patent publication US8598115B2, “Cyclic compound and salt thereof” (Astellas Pharma Inc., priority 2008, dated 2013).
# Square brackets hold non-standard residues; d marks the D form. Peptide text beside a SMILES is read from it. Orn(N5-OH,N5-Ac) = CC(=O)N(O)CCC[C@H](N)C(=O)O
# Test system: Aspergillus fumigatus FP1305
# Test: Antifungal activity, broth microdilution method
# Format: cell-based
# Description: Antifungal activities for test fungi shown in Table 15 was determined by a broth microdilution method (Hikaru Kume and Toshikazu Yamazaki, Clinical Microbiology, Vol. 21, No. 5, pp. 573-580, 1994).
smiles,measurement,value
"CC(=O)N([O-])CCC[C@@H]1NC(=O)CNC(=O)CNC(=O)CNC(=O)[C@H](CCCN([O-])C(C)=O)NC(=O)[C@H](CCCN([O-])C(C)=O)NC1=O.[Fe+3] [ferrichrome, Ferrichrome] (cyclo(GGG[Orn(N5-OH,N5-Ac)][Orn(N5-OH,N5-Ac)][Orn(N5-OH,N5-Ac)]))",MEC (minimum effective concentration),≥ 50 µg/mL
